Measurements from ChEMBL document CHEMBL2040789, “Optimization of the Central Core of Indolinone-Acetic Acid-Based CRTH2 (DP2) Receptor Antagonists” (ACS Med Chem Lett, 2011).
One block for each molecule: values may come before it.

Key:
[1] = target: T1, Prostaglandin D2 receptor 2 (Homo sapiens, UniProt Q9Y5Y4); assay: Displacement of [3H]PGD2 from human CRTH2 receptor expressed in CHO cells after 90 mins by scintillation proximity assay; format: cell-based
T1 sequence (Q9Y5Y4 whole entry): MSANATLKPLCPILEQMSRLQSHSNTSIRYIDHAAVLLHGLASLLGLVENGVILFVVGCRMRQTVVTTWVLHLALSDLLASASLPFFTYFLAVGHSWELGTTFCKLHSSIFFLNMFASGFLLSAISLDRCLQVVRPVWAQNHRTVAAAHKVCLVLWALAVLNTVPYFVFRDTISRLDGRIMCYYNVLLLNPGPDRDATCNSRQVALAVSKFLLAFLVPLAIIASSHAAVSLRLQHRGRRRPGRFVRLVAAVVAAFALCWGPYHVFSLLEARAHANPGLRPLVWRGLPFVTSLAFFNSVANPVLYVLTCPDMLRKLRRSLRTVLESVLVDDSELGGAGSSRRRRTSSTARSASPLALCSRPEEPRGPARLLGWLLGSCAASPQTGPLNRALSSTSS

[2] = Oral bioavailability in C57BL/6 mouse at 5 mg/kg; format: ADME, organism-based; conditions: in vivo
[3] = Clearance in C57BL/6 mouse at 1 mg/kg, iv and 5 mg/kg, po; format: ADME, organism-based; conditions: in vivo
[4] = Fraction unbound in human plasma; format: ADME, cell-free
[5] = Apparent permeability of the compound in human Caco2 cells; format: ADME, cell-based; conditions: Caco-2
[6] = Clearance in Sprague-Dawley rat at 1 mg/kg, iv and 5 mg/kg, po; format: ADME, organism-based; conditions: in vivo
[7] = Oral bioavailability in Sprague-Dawley rat at 5 mg/kg; format: ADME, organism-based; conditions: in vivo
[8] = Drug degradation at pH 9 after 24 hrs; format: physicochemical; conditions: buffer, read-out: Drug degradation
[9] = Drug degradation in human plasma after 24 hrs; format: ADME, cell-free; conditions: read-out: Drug degradation
Mus musculus = assay: Antiinflammatory activity in ovalbumin-sensitised Balb/c mouse assessed as reduction in ovalbumin-induced eosinophil count in bronchoalveolar lavage fluid at 1 mg/kg, ip administered 1 hr before and 7 hrs after ovalbumin challenge measured after 8 hrs by haemocytometeric analysis; format: functional; conditions: Lung, route intraperitoneal

Ki [1]: 28 nM
Structure (SMILES): O=C(O)CN1C(=O)C2(NC(=O)N(Cc3cc(Cl)ccc3F)C2=O)c2cc(Cl)ccc21 (stereo unspecified)

Ki [1]: 16 nM
bioavailability [2]: < 5%
clearance [3]: 60.5 mL/min/kg
Structure (SMILES): CN1C(=O)N(Cc2csc(-c3ccccc3)n2)C(=O)C12C(=O)N(CC(=O)O)c1ccc(Cl)cc12 (stereo unspecified)

Ki [1]: 7 nM
Structure (SMILES): Cc1onc(-c2ccccc2)c1CN1C(=O)NC2(C1=O)C(=O)N(CC(=O)O)c1ccc(Cl)cc12 (stereo unspecified)

Ki [1]: 260 nM
Structure (SMILES): CCN1C(=O)N(Cc2cc(Cl)ccc2F)C(=O)[C@]12C(=O)N(CC(=O)O)c1ccc(Cl)cc12

Ki [1]: 390 nM
Structure (SMILES): CN1C(=O)N(Cc2cc(F)ccc2F)C(=O)C12C(=O)N(CC(=O)O)c1ccc(Cl)cc12 (stereo unspecified)

Ki [1]: 750 nM
Structure (SMILES): CN1C(=O)N(Cc2nc3ccccc3s2)C(=O)C12C(=O)N(CC(=O)O)c1ccc(Cl)cc12 (stereo unspecified)

fraction unbound [4]: < 0.01
Papp [5]: 1.8 ×10⁻⁶ cm/s
clearance [6]: 12 mL/min/kg
bioavailability [7]: 5%
degraded at 24 h [8]: < 5%
metabolised at 24 h [9]: < 15%
Structure (SMILES): O=C(O)CN1C(=O)[C@@]2(CC(=O)N(Cc3cc(Cl)ccc3F)C2)c2cc(Cl)ccc21

Ki [1]: 490 nM
Structure (SMILES): CC(C)c1nc(CN2C(=O)N(C)C3(C2=O)C(=O)N(CC(=O)O)c2ccc(Cl)cc23)cs1 (stereo unspecified)

Structure (SMILES): C[C@@H]1C[C@H]2[C@@H]3CCC4=CC(=O)C=C[C@]4(C)[C@@]3(F)[C@@H](O)C[C@]2(C)[C@@]1(O)C(=O)CO [DEXAMETHASONE]
inhibition in vivo at 1 mg/kg (Mus musculus): 83%
